Among the test systems are CAKI-1 renal; DU-145 prostate; EKVX NSCLC; HL-60(TB) leukemia; HOP-92 NSCLC; OVCAR-4 ovarian; SK-MEL-5 melanoma; SK-OV-3 ovarian; SN12C renal; SR leukemia.
Holding throughout (experiment): growth of human tumour cells (NCI), 48 h

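The compound was tested at five concentrations on cells cultured in 96-well plates, with a 48-hour exposure period. GI50: concentration for 50% inhibition of growth. TGI denotes the concentration required for complete inhibition of growth.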

Experimental findings from PubChem BioAssay (NCI) are described below.

Regarding `CN(C)CCOc1ccccc1NC1=C(Cl)C(=O)C(Nc2ccccc2OCCN(C)C)=C(Cl)C1=O`, the GI50 was 1.14 µM with CAKI-1 renal; 6.64 µM in the assay with DU-145 prostate; 5.33 µM with EKVX NSCLC; 0.658 µM with HL-60(TB) leukemia; 1.45 µM in the assay with HOP-92 NSCLC; 0.473 µM in the assay with OVCAR-4 ovarian. Moreover, the GI50 is over 47.7 µM in the assay on SK-OV-3 ovarian, 0.573 µM with SN12C renal and 5.12 µM in the assay on SR leukemia. In addition, the TGI in the assay on CAKI-1 renal is 2.36 µM; in the assay on EKVX NSCLC, 19.1 µM; with HL-60(TB) leukemia, 2.06 µM; in the assay on HOP-92 NSCLC, 3.07 µM; in the assay with OVCAR-4 ovarian, 0.896 µM; in the assay with SK-MEL-5 melanoma it was over 23.8 µM. Further, the TGI is over 83.1 µM in the assay on SK-OV-3 ovarian, 1.21 µM in the assay on SN12C renal and over 100 µM in the assay with SR leukemia.
Turning to `CC1(C)CCC(C)(C)c2cc(NC(=O)c3ccc(C(=O)O)cc3)ccc21`, the TGI in the assay with CAKI-1 renal is 98.6 µM; in the assay with DU-145 prostate it was over 100 µM; in the assay on EKVX NSCLC, over 100 µM; in the assay with HL-60(TB) leukemia, over 100 µM; in the assay with HOP-92 NSCLC, 64.1 µM; in the assay with OVCAR-4 ovarian, over 100 µM. In addition, the TGI in the assay on SK-MEL-5 melanoma was over 93.2 µM; in the assay with SK-OV-3 ovarian, over 100 µM; with SN12C renal it was 93 µM; in the assay on SR leukemia it was over 100 µM.
Consider `CCNCCNc1cc(-c2ccc(C(F)(F)F)cc2)c(C#N)c2nc3cc(Cl)c(Cl)cc3n12`, for which the GI50 with CAKI-1 renal was 1.45 µM; with DU-145 prostate it was 1.7 µM; with EKVX NSCLC it was 1.59 µM; in the assay with HL-60(TB) leukemia, 0.308 µM; in the assay on HOP-92 NSCLC it was 1.41 µM; in the assay on OVCAR-4 ovarian, 1.41 µM. For the same molecule, the GI50 in the assay with SK-MEL-5 melanoma is 1.67 µM; with SK-OV-3 ovarian, 2.01 µM; in the assay on SN12C renal it was 1.77 µM; with SR leukemia, 0.185 µM. Moreover, the TGI with CAKI-1 renal turned out to be 2.82 µM; with DU-145 prostate, 3.13 µM; with EKVX NSCLC, 3.13 µM; with HL-60(TB) leukemia, 1.01 µM; in the assay on HOP-92 NSCLC, 2.96 µM; in the assay with OVCAR-4 ovarian, 3.14 µM. The TGI in the assay with SK-MEL-5 melanoma worked out at 3.04 µM; in the assay with SK-OV-3 ovarian it was 3.45 µM; in the assay on SN12C renal, 3.46 µM; in the assay on SR leukemia, 0.439 µM.
On to `CN(C)CCS(=O)(=O)Nc1cc(-c2ccc3ncc(C#N)c(Nc4ccc(F)c(Cl)c4)c3c2)cnc1Cl`, for which the GI50 in the assay on CAKI-1 renal is 0.0913 µM; with DU-145 prostate, 0.293 µM; with EKVX NSCLC, 0.23 µM; in the assay on HL-60(TB) leukemia, 0.0708 µM; in the assay on HOP-92 NSCLC it was 0.0322 µM; in the assay with OVCAR-4 ovarian it was 0.382 µM. Besides, the GI50 in the assay on SK-MEL-5 melanoma is 0.118 µM; with SK-OV-3 ovarian, 0.299 µM; in the assay on SN12C renal, 0.232 µM; in the assay on SR leukemia, 0.282 µM. In addition, the TGI was determined as 0.511 µM in the assay with CAKI-1 renal; 2.11 µM in the assay with DU-145 prostate; 1.47 µM in the assay on EKVX NSCLC; 0.684 µM with HL-60(TB) leukemia; 0.409 µM with HOP-92 NSCLC; 10.3 µM in the assay on OVCAR-4 ovarian. The TGI is 0.244 µM in the assay with SK-MEL-5 melanoma, 1.79 µM in the assay on SK-OV-3 ovarian, over 100 µM with SN12C renal and over 100 µM with SR leukemia.
With `O=c1oc2ccc(Br)cc2c(=O)n1-c1ccc(Cl)cc1F`, the GI50 in the assay on CAKI-1 renal was 0.821 µM; in the assay with DU-145 prostate, 1.86 µM; in the assay with EKVX NSCLC, 1.45 µM; with HL-60(TB) leukemia, 1.12 µM; in the assay with HOP-92 NSCLC, 0.179 µM; in the assay with OVCAR-4 ovarian, 0.887 µM. Besides, the GI50 in the assay with SK-MEL-5 melanoma was 0.323 µM; with SK-OV-3 ovarian, 0.672 µM; in the assay with SN12C renal, 0.82 µM; in the assay with SR leukemia, 0.798 µM. The TGI in the assay with CAKI-1 renal amounted to 4.37 µM; with DU-145 prostate, 21.3 µM; in the assay with EKVX NSCLC, 7.81 µM; in the assay on HL-60(TB) leukemia, 4.96 µM; in the assay on HOP-92 NSCLC, 0.618 µM; with OVCAR-4 ovarian it was 28.1 µM. Also, the TGI in the assay on SK-MEL-5 melanoma was 1.08 µM; in the assay with SK-OV-3 ovarian, 4.48 µM; with SN12C renal, 5.16 µM; with SR leukemia it was over 100 µM.
On to `COc1ccc(NC(=O)c2ccc(NC3=C(Cl)C(=O)N(Cc4ccccc4)C3=O)cc2)c(OC)c1`, for which the GI50 is 0.637 µM in the assay on CAKI-1 renal; 28.8 µM in the assay with DU-145 prostate; 64.9 µM in the assay on EKVX NSCLC; 13.2 µM in the assay with HL-60(TB) leukemia; 6.27 µM with HOP-92 NSCLC; 61.8 µM in the assay on OVCAR-4 ovarian. In addition, the GI50 in the assay with SK-MEL-5 melanoma is 26.2 µM; in the assay with SK-OV-3 ovarian it was over 100 µM; in the assay with SN12C renal, 29.2 µM; with SR leukemia it was 1.39 µM. In addition, the TGI was 1.96 µM in the assay on CAKI-1 renal; 85.7 µM with DU-145 prostate; over 100 µM with EKVX NSCLC; 31.1 µM with HL-60(TB) leukemia; 47 µM in the assay on HOP-92 NSCLC; over 100 µM in the assay on OVCAR-4 ovarian. Besides, the TGI was 75.2 µM in the assay on SK-MEL-5 melanoma, over 100 µM in the assay on SK-OV-3 ovarian, 83.5 µM in the assay with SN12C renal and 3.98 µM in the assay with SR leukemia.
Turning to `COc1ccc(OC)c(/C=C/c2ccnc3ccccc23)c1`, the TGI with CAKI-1 renal amounted to 18.1 µM; in the assay on DU-145 prostate, 13.1 µM; in the assay on EKVX NSCLC, 10.7 µM; in the assay on HL-60(TB) leukemia it was 0.977 µM; with HOP-92 NSCLC, 18.1 µM; in the assay on OVCAR-4 ovarian, 19.6 µM. The TGI in the assay on SK-MEL-5 melanoma came out at 12.9 µM; in the assay with SK-OV-3 ovarian, 5.1 µM; with SN12C renal, 17.6 µM; in the assay on SR leukemia, 8.07 µM.
With `Cn1c(-c2c(N)n(Cc3ccc(F)cc3)c3nc(C#N)c(C#N)nc23)nc2ccccc21`, the GI50 with CAKI-1 renal was 1.36 µM; in the assay with DU-145 prostate, 3.02 µM; with EKVX NSCLC, 4.16 µM; in the assay on HL-60(TB) leukemia, 3.76 µM; in the assay with HOP-92 NSCLC, 1.63 µM; in the assay with OVCAR-4 ovarian, 2.3 µM. The GI50 in the assay on SK-MEL-5 melanoma is 2.97 µM; with SK-OV-3 ovarian it was 11 µM; in the assay on SN12C renal it was 2.09 µM; in the assay on SR leukemia, 1.01 µM. Moreover, the TGI in the assay on CAKI-1 renal was 4.43 µM; with DU-145 prostate it was 21.6 µM; in the assay with EKVX NSCLC it was over 50 µM; in the assay on HL-60(TB) leukemia, over 50 µM; in the assay with HOP-92 NSCLC, 18.4 µM; with OVCAR-4 ovarian, over 50 µM. The TGI is over 50 µM in the assay with SK-MEL-5 melanoma, 33.8 µM with SK-OV-3 ovarian, 20 µM in the assay on SN12C renal and over 50 µM in the assay with SR leukemia.
